Measured values as given in patent US7550599B2, “Water compatible sterically hindered alkoxyamines and hydroxy substituted alkoxyamines” (Ciba Specialty Chemicals Corporation, priority 2003, dated 2009).
One block for each compound: values may come before it.

What was measured:
[1] = Compatibility (clarity) of polyurethane coating in Petri dish, Example 115; type: physicochemical; conditions: coating of Example 113; oven 75 C 120 minutes; 2% by weight stabilizer
Description: (§1) The hindered amine test stabilizers are incorporated into a coating system as described in Example 113. A 9.5-10 gram sample of each of the liquid coatings is added to a 100 mm×15 mm Petri dish and is placed in an oven at 75 C for 120 minutes. The samples are taken out of the oven, allowed to cool, and are visually observed for clarity over time. The development of opacity or haziness is indicative of an incompatibility between the hindered amine stabilizer and the formulated coating.

[2] = Compatibility (clarity) of acrylic copolymer coating in Petri dish, Example 114; type: physicochemical; conditions: coating of Example 112; oven 65 C thirty minutes; 2% by weight stabilizer
Description: as §1, with “112.” for “113.”, “65” for “75”, “thirty” for “120”

[3] = Compatibility (clarity) in water borne urethane/acrylic copolymer coating, Example 101; type: physicochemical; conditions: 2% by weight stabilizer; haziness = incompatibility
Description: Formulation Reference: NeoResins, Inc., Formulation WB-2010, Technical Brochure, August, 2000.
(§2) The following components are mixed together under good agitation:
This solution is added to a 4 ounce clear glass jar containing 72.85 parts of NeoPac R-9699 under vigorous agitation and agitated for 10 minutes. Optionally, a defoamer, like Dehydran 1620 (Henkel), and a flash rusting agent, like Heiscore XAB (Cas Chem), are added. The lid is placed securely on the jar. The solidified coatings are visually observed for clarity after solidification. The development of opacity or haziness is indicative of an incompatibility between the hindered amine stabilizer and the formulated coating.

[4] = Compatibility (clarity) in two component water-borne polyurethane coating, jar, Example 113; type: physicochemical; conditions: 2% by weight stabilizer, with UVA; haziness = incompatibility
Description: Formulation Reference: Bayer Corp., 2K Waterborne Clear, Notebook #820894-A, Technical Brochure.
as §2
(§3) This solution is added to a 4 ounce clear glass jar containing 15.56 parts of Bayhydur XP-7165 and 3.91 parts of Exxate 700 under vigorous agitation and is agitated for 10 minutes. The lid is placed securely on the jar. The solidified coating samples are visually observed for clarity over time. The development of opacity or haziness is indicative of an incompatibility between the hindered amine stabilizer and the formulated coating.

[5] = Compatibility (clarity) in alkali-soluble water-borne acrylic copolymer coating, liquid in jar, Example 112; type: physicochemical; conditions: 2% by weight stabilizer; haziness = incompatibility
Description: Formulation Reference: NeoResins, Inc., Formulation WB-2065, Technical Brochure.
as §2
as §3, with “54.14” for “15.56”, “NeoCryl BT-520” for “Bayhydur XP-7165”, “0.43” for “3.91”, “Instant Stabilizer” for “Exxate 700”, “liquid” for “solidified”

[6] = Ink jet media light fastness, yellow, Example 36; conditions: 50% print density, office fluorescent lighting, 650-700 mg/m2
Description: (§4) A resin-coated paper impregnated with inorganic adsorbent particles (Konica QP Photoglossy ink jet paper, Konica Corp.) is purchased. On the ink-receiving layer, a 0.8 wt % methanol solution of the instant compounds is applied in an amount to achieve 650-700 mg/m^2, unless stated otherwise. The paper is allowed to dry under ambient temperature and pressure for 24 hours. Separately, test patterns (yellow) are printed on the treated sheets using a Hewlett Packard DeskJet 970 Cxi printer at 50% print density. The obtained prints are left to dry at ambient temperature and pressure for 24 hours. Color densities and CIEL*a*b coordinates before and after exposure are measured using X-Rite 938 Spectrodensitometer. Exposures are carried out using normal office fluorescent lighting.

[7] = Ink jet media light fastness, cyan, Example 34; conditions: 50% print density, office fluorescent lighting
Description: as §4, with “otherwise stated.” for “stated otherwise.”, “(cyan)” for “(yellow)”

[8] = Ink jet media light fastness, cyan, Example 31; conditions: 100% print density, office fluorescent lighting
Description: as §4, with “otherwise stated.” for “stated otherwise.”, “(cyan)” for “(yellow)”, “100%” for “50%”

[9] = Ink jet media light fastness, yellow, Example 33; conditions: 50% print density as printed, office fluorescent lighting, 650-700 mg/m2
Description: as §4

[10] = Ink jet media light fastness, magenta, Example 32; conditions: 100% print density, office fluorescent lighting
Description: as §4, with “otherwise stated.” for “stated otherwise.”, “(magenta)” for “(yellow)”, “100%” for “50%”

[11] = Solubility in 25% butyl cellusolve / 75% water; type: physicochemical; conditions: 25% butyl cellusolve / 75% water by weight; stirred 30 minutes
Description: (§5) The solubility of the instant compounds is evaluated in polar solvent systems. A solution of 25% butyl cellusolve by weight and 75% water by weight is prepared. The instant compounds are added to this solution, stirred for 30 minutes, and sampled for analysis. Samples containing bis(1-octyloxy-2,2,6-tetramethylpiperidin-4-yl)sebacate and 4-hydroxy-1-(2-hydroxy-2-methylpropoxy)-2,2,6,6-tetramethylpiperidine are filtered to remove any undissolved residue and all samples are analyzed by high pressure liquid chromatography or gas chromatography.

[12] = Solubility in 50% butyl cellusolve / 50% water; type: physicochemical; conditions: 50% butyl cellusolve / 50% water by weight; stirred 30 minutes
Description: as §5, with “50%” for “25%”, “50%” for “75%”, “solution” for “solution,”, “bis(1-octyloxy-2,2,6,6-tetramethylpiperidin-4-yl)sebacate” for “bis(1-octyloxy-2,2,6-tetramethylpiperidin-4-yl)sebacate”

Solubility in water = type: physicochemical; conditions: stirred 30 minutes
Description: The solubility of the instant compounds is evaluated in polar solvent systems. The instant compounds are added to water, stirred for 30 minutes, and sampled for analysis. Samples containing bis(1-octyloxy-2,2,6,6-tetramethylpiperidin-4-yl)sebacate and 4-hydroxy-1-(2-hydroxy-2-methylpropoxy)-2,2,6,6-tetramethylpiperidine are filtered to remove any undissolved residue and all samples are analyzed by high pressure liquid chromatography or gas chromatography.

[13] = Solubility in 50% butyl carbitol / 50% water; type: physicochemical; conditions: 50% butyl carbitol / 50% water by weight; stirred 30 minutes
Description: as §5, with “50%” for “25%”, “carbitol” for “cellusolve”, “50%” for “75%”, “bis(1-octyloxy-2,2,6,6-tetramethylpiperidin-4-yl)sebacate” for “bis(1-octyloxy-2,2,6-tetramethylpiperidin-4-yl)sebacate”

Solidified coating in Petri Dish, clarity, 0 [1]: hazy | Solidified coating in Petri Dish, clarity, 1 Month [1]: hazy | Solidified coating in Petri Dish, clarity, Day 1 [1]: hazy | Solidified coating in Petri Dish, clarity, 0 [2]: hazy | Solidified coating in Petri Dish, clarity, 1 Month [2]: hazy | Solidified coating in Petri Dish, clarity, Day 1 [2]: hazy | Solidified coating in jar, clarity, 0 days [3]: hazy | Solidified coating in jar, clarity, 1 days [3]: hazy | Solidified coating in jar, clarity, 19 days [3]: hazy | Solidified coating in jar, clarity, 0 [4]: hazy | Solidified coating in jar, clarity, 1 Month [4]: hazy | Solidified coating in jar, clarity, Day 1 [4]: hazy | Liquid coating in jar, clarity, 0 [5]: hazy | Liquid coating in jar, clarity, 1 Month [5]: hazy | Liquid coating in jar, clarity, Day 1 [5]: hazy
Compound: CCCCCCCCON1C(C)(C)CC(OC(=O)CCCCCCCCC(=O)OC2CC(C)(C)N(OCCCCCCCC)C(C)(C)C2)CC1(C)C [B]

Solidified coating in jar, clarity, 0 days [3]: clear | Solidified coating in jar, clarity, 1 days [3]: clear | Solidified coating in jar, clarity, 19 days [3]: clear
Compound: CCCCN(c1nc(NCCN2CCNCC2)nc(N(CCCC)C2CC(C)(C)N(OC3CCCCC3)C(C)(C)C2)n1)C1CC(C)(C)N(OC2CCCCC2)C(C)(C)C1.Cl [J]

Solidified coating in jar, clarity, 0 days [3]: clear | Solidified coating in jar, clarity, 1 days [3]: clear | Solidified coating in jar, clarity, 19 days [3]: clear
Compound: CCCCN(c1nc(Nc2ccc(Cl)c(C(=O)O)c2)nc(N(CCCC)C2CC(C)(C)N(OC3CCCCC3)C(C)(C)C2)n1)C1CC(C)(C)N(OC2CCCCC2)C(C)(C)C1 [G]

Solidified coating in jar, clarity, 0 days [3]: clear | Solidified coating in jar, clarity, 1 days [3]: clear | Solidified coating in jar, clarity, 19 days [3]: clear
Compound: CON1C(C)(C)CC(NCCOCCOCCNC2CC(C)(C)N(OC)C(C)(C)C2)CC1(C)C [L]

Compound: CC(C)(O)CON1C(C)(C)CC(=NO)CC1(C)C [Example 2]
DE for yellow after 4 weeks [6]: 1.36 | DE for cyan after 4 weeks ([7]; 650-700 mg/m2): 5.53 | DE for cyan after 4 weeks ([8]; 650-700 mg/m2): 4.69 | DE for yellow after 4 weeks [9]: 3.87

Compound: CC(C)(O)CON1C(C)(C)CC(NCCO)CC1(C)C.Cl [Example 22]
DE for magenta after 4 weeks ([10]; 650-700 mg/m2): 25.20 | DE for magenta after 4 weeks ([10]; (2x) 1300 to 1400 mg/m2): 21.96 | DE for yellow after 4 weeks [6]: 3.15 | DE for cyan after 4 weeks ([7]; 650-700 mg/m2): 5.98 | DE for cyan after 4 weeks ([7]; (2x) 1300 to 1400 mg/m2): 5.11 | DE for cyan after 4 weeks ([8]; 650-700 mg/m2): 5.26 | DE for cyan after 4 weeks ([8]; (2x) 1300 to 1400 mg/m2): 4.62 | DE for yellow after 4 weeks [9]: 5.53

Solidified coating in jar, clarity, 0 days [3]: clear | Solidified coating in jar, clarity, 1 days [3]: clear | Solidified coating in jar, clarity, 19 days [3]: clear
Compound: CCCCN(c1nc(Nc2ccc(S(=O)(=O)O)cc2)nc(N(CCCC)C2CC(C)(C)N(OC3CCCCC3)C(C)(C)C2)n1)C1CC(C)(C)N(OC2CCCCC2)C(C)(C)C1.Cl [H]

Solubility (% by weight) [11]: 13.6 % by weight | Solubility (% by weight) [12]: 15.5 % by weight | Solubility (% by weight) (Solubility in water): 1.4 % by weight | Solubility (% by weight) [13]: 13.4 % by weight
Compound: CC(C)(O)CON1C(C)(C)CC(O)CC1(C)C [HALS B, 4-hydroxy-1-(2-hydroxy-2-methylpropoxy)-2,2,6,6-tetramethylpiperidine, reference compound]

Solidified coating in jar, clarity, 0 days [3]: clear | Solidified coating in jar, clarity, 1 days [3]: clear | Solidified coating in jar, clarity, 19 days [3]: clear
Compound: CC(=O)O.CCCCN(c1nc(NCCNCCNCCN)nc(N(CCCC)C2CC(C)(C)N(OC3CCCCC3)C(C)(C)C2)n1)C1CC(C)(C)N(OC2CCCCC2)C(C)(C)C1 [I]

Solubility (% by weight) [11]: <0.1 % by weight | Solubility (% by weight) [12]: 0.7 % by weight | Solubility (% by weight) (Solubility in water): <0.1 % by weight | Solubility (% by weight) [13]: 0.2 % by weight
Compound: CCCCCCCCON1C(C)(C)CC(OC(=O)CCCCCCCCC(=O)OC2CC(C)(C)N(OCCCCCCCC)C(C)(C)C2)CC1(C)C [HALS A, bis(1-octyloxy-2,2,6,6-tetramethylpiperidin-4-yl) sebacate, reference compound]

Compound: CC(C)(O)CON1C(C)(C)CC(NCCO)CC1(C)C [Example 1]
DE for magenta after 4 weeks ([10]; 650-700 mg/m2): 20.23 | DE for cyan after 4 weeks ([7]; 650-700 mg/m2): 5.29 | DE for cyan after 4 weeks ([8]; 650-700 mg/m2): 4.21

Solubility (% by weight) [11]: ≧18 % by weight | Solubility (% by weight) [12]: ≧20 % by weight | Solubility (% by weight) (Solubility in water): ≧8 % by weight | Solubility (% by weight) [13]: ≧20 % by weight
Compound: CC(C)(O)CON1C(C)(C)CC(NCC(=O)[O-])CC1(C)C.[K+] [Example 10]
